Test system: A2780 cells
Experiment: Proliferation assay (Method 3), A2780
Format: cell-based
Details: A2780, 96 h; human ovarian carcinoma, 4 days, crystal violet; read-out: Inhibition of A2780 cell proliferation IC50
Method: Cultivated tumour cells (HeLa, human cervical tumour cells, ATCC CCL-2; NCI-H460, human non-small cell lung carcinoma cells, ATCC HTB-177; A2780, human ovarian carcinoma cells, ECACC #93112519; DU 145, hormone-independent human prostate carcinoma cells, ATCC HTB-81; HeLa-MaTu-ADR, multidrug-resistant human cervical carcinoma cells, EPO-GmbH Berlin; Caco-2, human colorectal carcinoma cells, ATCC HTB-37; B16F10, mouse melanoma cells, ATCC CRL-6475) were plated at a density of 5,000 cells/well (DU145, HeLa-MaTu-ADR), 3,000 cells/well (NCI-H460, HeLa), 2,500 cells/well (A2780), 1,500 cells/well (Caco-2), or 1,000 cells/well (B16F10) in a 96-well multititer plate in 200 μL of their respective growth medium supplemented 10% fetal calf serum. […] Cell proliferation was determined by staining the cells with crystal violet: the cells were fixed by adding 20 μl/measuring point of an 11% glutaric aldehyde solution for 15 minutes at room temperature. […] The extinction was determined by photometry at a wavelength of 595 nm. The change of cell number, in percent, was calculated by normalization of the measured values to the extinction values of the zero-point plate (=0%) and the extinction of the untreated (0 μm) cells (=100%). […]

Molecule `CS(=O)(=O)Cc1cc(F)nc(Nc2cc(-c3ccc(F)c4ccoc34)c(F)cn2)c1` [Example 2, 5-Fluoro-4-(4-fluoro-1-benzofuran-7-yl)-N-{6-fluoro-4-[(methylsulfonyl)methyl]pyridin-2-yl}pyridin-2-amine] has an IC50 of 24 nM.
